Source: paper PMC8752837, “Structural basis of BAK activation in mitochondrial apoptosis initiation” (Nature Communications, 2022)
Where a chain is given by its changes, count along the chain named. Several values for one entry are separate records, joined by “and”; a condition that tells them apart may be missing. Equal values may be shown once.

Assays:
MEAS-BAK-His6 = target: T1, MEAS-BAK-His6 (Homo sapiens, UniProt Q16611); test: Surface plasmon resonance; assay type: binding; conditions: 20 °C; for Kd: MEAS-BAK-His6 captured on Ni-NTA HisCap chip, three-fold peptide dilution series injected in triplicate, read-out: SPR KD
T1 construct: C-terminus truncated recombinant human BAK containing C-terminal 6× histidine tag (MEAS-BAK); made in house; host or cells: E. coli T7 Express pLac I/Y
T1 sequence (Q16611 1-186 limits assumed): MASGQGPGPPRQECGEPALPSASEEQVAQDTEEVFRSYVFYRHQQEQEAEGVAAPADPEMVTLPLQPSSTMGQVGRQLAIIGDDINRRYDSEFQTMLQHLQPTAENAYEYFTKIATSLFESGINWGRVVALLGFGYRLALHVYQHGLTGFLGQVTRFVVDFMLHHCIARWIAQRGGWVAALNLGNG
Method: We conducted SPR experiments at 20 °C using a Pioneer FE optical biosensor (ForteBio) amd histidine-tagged MEAS-BAK-His6 immobilized on polycarboxylate hydrogel-coated gold chips preimmobilized with nitrilotriacetic acid (HisCap chips; ForteBio). We primed the chip in chelating buffer (10 mM HEPES pH 7.4, 150 mM NaCl, 50 µM EDTA, 0.005% Tween20) and preconditioned it at 10 µL/min with three 60 s injections of wash buffer (10 mM HEPES pH 8.3, 150 mM NaCl, 350 mM EDTA, 0.05% Tween20) and one 60 s injection of chelating buffer before charging with a 60 s injection of 500 µM NiCl2 in chelating buffer. After priming into binding buffer (20 mM HEPES pH 8.0, 200 mM NaCl, 1 mM TCEP, 0.01% Tween20), we injected BAK to achieve ~500 RU of captured protein. As reference cell, we charged one flow cell on the chip with Ni^2+ without adding protein. […] We included a series of buffer-only (blank) injections throughout the experiment to account for instrumental noise. […] We processed, double-referenced, solvent corrected, and analyzed the data using the software package Qdat (version 4.3.1.2, ForteBio). We determined kinetic rate constants and affinities by fitting the data to a 1:1 interaction model.

I81R BAK = target: T2, I81R BAK (Homo sapiens, UniProt Q16611, I81R); test: Isothermal titration calorimetry with mutant BAK; assay type: binding; conditions: KD could not be obtained by ITC or SPR
T2 construct: To generate tevBAK (residues 22–186), we cleaved off the histidine tag with TEV protease; His tag (vector pNIC28-Bsa4) (N, cleaved yes); made in house; host or cells: E. coli T7 Express pLac I/Y
T2 sequence (Q16611 22-186 I81R): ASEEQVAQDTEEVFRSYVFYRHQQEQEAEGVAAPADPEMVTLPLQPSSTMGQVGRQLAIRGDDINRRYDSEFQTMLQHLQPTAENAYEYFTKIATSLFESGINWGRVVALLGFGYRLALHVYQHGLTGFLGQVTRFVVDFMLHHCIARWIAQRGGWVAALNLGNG
Method: Protein samples were exchanged into 20 mM HEPES, 100 mM NaCl and 1 mM TCEP prior to the experiment. Titrations were performed by first injecting 0.5 μl of 250 or 500 µM BID BH3 peptides into a solution of 20 or 50 µM BAK followed by additional 2 μl injections. […] Results were analyzed using Origin software (OriginLab) provided by MicroCal. Binding constants (KD) and thermodynamic parameters were calculated from the average of two or three individual titrations by fitting the data to a single site binding model using a nonlinear least-squares fitting algorithm.

V74A(1) BAK = test: Liposome permeabilization assay: BH3 peptide activation of V74A(1) BAK receptor; assay type: biochemical, human; conditions: Suppl. Figs. 3e, 4d
Method: (§1) We performed liposome permeabilization assays as previously described[43]-[46]. […] We mixed the lipid film in ANTS/DPX solution by vortexing and sonication (~15 min) followed by extrusion through polycarbonate membrane of 2 μm pore size (Avanti Polar lipids) to generate homogenous large unilamellar vesicles (LUVs). We separated LUVs from free ANTS/DPX by S500 size exclusion chromatography and stored them at 4 °C in the dark. We prepared peptide and protein dilutions in 96-well black flat bottom plates (Costar) kept on ice. […] We quantified liposome permabilization by integrating area under curve (AUC) of normalized traces based on the Simpson's equation, and analyzed that data in Excel and GraphPad Prism. AUC measurements reflect the kinetic and extent of liposome permeabilization and provide quantitative means for comparison between different experimental conditions (e.g., BAK mutants with gross or partial variation in activity). Variability in permeabilization of different liposomes is common and our analyses compare among conditions investigated with the same liposomes. Although the absolute permeabilization values may differ, the trends for the same conditions are always very similar between different liposomes.

D83A(s) BAK = target: T3, D83A(s) BAK (Homo sapiens, UniProt Q16611, D83A); test: Liposome permeabilization assay: BH3 peptide activation of D83A(s) BAK receptor; assay type: biochemical; conditions: for liposome permeabilization by 50 nM D83A(s) BAK receptor: 50 nM mutant BAK, Suppl. Fig. 4f; for EC50: EC50 of liposome permeabilization by 200 nM D83A(s) BAK, 200 nM D83A(s) BAK, Suppl. Fig. 3e, 4e
T3 construct: C-terminus truncated recombinant human BAK containing C-terminal 6× histidine tag (MEAS-BAK); made in house; host or cells: E. coli T7 Express pLac I/Y
T3 sequence (Q16611 1-186 D83A limits assumed): T1 sequence (Q16611 1-186 limits assumed) with D83A
Method: as §1

I81A(3) BAK = test: Liposome permeabilization assay: BH3 peptide activation of I81A(3) BAK receptor; assay type: biochemical, human; conditions: 50 nM mutant BAK; Suppl. Fig. 4f
Method: as §1

CC[C@H](C)[C@H](NC(=O)[C@H](C)NC(=O)[C@H](CC(C)C)NC(=O)[C@H](CCC(N)=O)NC(=O)[C@H](CCCNC(=N)N)NC(=O)CNC(=O)[C@@H](NC(=O)[C@H](CCC(N)=O)NC(=O)CNC(=O)[C@H](CCSC)NC(=O)[C@@H](NC(=O)[C@H](CO)NC(=O)[C@H](CO)NC(C)=O)[C@@H](C)O)C(C)C)C(=O)N[C@H](C(=O)NCC(=O)N[C@@H](CC(=O)O)C(=O)N[C@@H](CC(=O)O)C(=O)N[C@H](C(=O)N[C@@H](CC(N)=O)C(=O)N[C@@H](CCCNC(=N)N)C(=O)N[C@@H](CCCNC(=N)N)C(=O)N[C@@H](Cc1ccc(O)cc1)C(N)=O)[C@@H](C)CC)[C@@H](C)CC [WT BAK BH3]
Kd (MEAS-BAK-His6; 1:1 interaction model): 67 µM
affinity for I81R BAK extrapolated by applying 2-fold difference compared to WT (I81R BAK): ~ 130 µM
peptide concentration at which ligands activate V74A(1) BAK (V74A(1) BAK): above 1 µM
liposome permeabilization by 50 nM D83A(s) BAK receptor (D83A(s) BAK): neither peptide ligands could promote liposome permeabilization
EC50 (D83A(s) BAK): 4 to 7 µM and 5 to 7 µM
liposome permeabilization by 50 nM I81A(3) BAK receptor (I81A(3) BAK): neither peptide ligands could promote liposome permeabilization

CC[C@H](C)[C@H](NC(=O)[C@H](CO)NC(=O)[C@H](CCCNC(=N)N)NC(=O)[C@H](CC(=O)O)NC(=O)[C@H](CCSC)NC(=O)[C@H](CO)NC(=O)[C@H](CC(=O)O)NC(=O)CNC(=O)[C@@H](NC(=O)[C@H](CCC(N)=O)NC(=O)[C@H](C)NC(=O)[C@H](CC(C)C)NC(=O)[C@H](Cc1c[nH]cn1)NC(=O)[C@H](CCCNC(=N)N)NC(=O)[C@H](C)NC(=O)[C@@H](NC(=O)[C@H](CC(N)=O)NC(=O)[C@H](CCCNC(=N)N)NC(=O)[C@@H](NC(=O)[C@@H](NC(=O)[C@H](CC(=O)O)NC(=O)[C@H](CCC(=O)O)NC(C)=O)[C@@H](C)CC)[C@@H](C)CC)[C@@H](C)CC)C(C)C)C(N)=O [WT BID BH3, reference compound]
SPR kd (MEAS-BAK-His6; 1:1 interaction model): 2.61±0.01 ×10-1 s-1
kon (MEAS-BAK-His6; 1:1 interaction model, read-out: SPR ka): 4190 ± 20 M⁻¹ s⁻¹
Kd (MEAS-BAK-His6; 1:1 interaction model): 62.3 ± 0.4 µM
SPR Rmax (MEAS-BAK-His6; ~500 RU captured BAK): 26.2±0.1 RU
affinity for I81R BAK extrapolated by applying 2-fold difference compared to WT (I81R BAK): ~ 130 µM
peptide concentration at which ligands activate V74A(1) BAK (V74A(1) BAK): above 1 µM
liposome permeabilization by 50 nM D83A(s) BAK receptor (D83A(s) BAK): neither peptide ligands could promote liposome permeabilization
EC50 (D83A(s) BAK): 4 to 7 µM and 5 to 7 µM
liposome permeabilization by 50 nM I81A(3) BAK receptor (I81A(3) BAK): neither peptide ligands could promote liposome permeabilization
